# Measured values from PubChem BioAssay (NCI).
#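 These data come from cells grown in 96-well plates and exposed to compound for 48 hours at five concentrations. Abbreviation: GI50, concentration required for 50% inhibition of growth. TGI denotes the concentration required for complete inhibition of growth.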
# Tests used:
# Test in all cases: NCI anticancer screen, dose series, 48 h
# SK-MEL-2 melanoma = system: SK-MEL-2 melanoma
# IGROV1 ovarian = system: IGROV1 ovarian
# KM12 colon = system: KM12 colon
# HOP-62 NSCLC = system: HOP-62 NSCLC
# A549 NSCLC = system: A549 NSCLC
# TK-10 renal = system: TK-10 renal
# NCI-H23 lung = system: NCI-H23 lung
# BT-549 breast = system: BT-549 breast
# UO-31 renal = system: UO-31 renal
# MDA-MB-231 breast = system: MDA-MB-231 breast
# SNB-75 CNS = system: SNB-75 CNS
# HCT-15 colon = system: HCT-15 colon
# ACHN renal = system: ACHN renal
# RPMI-8226 leukemia = system: RPMI-8226 leukemia
# 786-0 renal = system: 786-0 renal
# CCRF-CEM leukemia = system: CCRF-CEM leukemia
# HL-60(TB) leukemia = system: HL-60(TB) leukemia
# HOP-92 NSCLC = system: HOP-92 NSCLC
# SNB-19 CNS = system: SNB-19 CNS
# NCI-H522 lung = system: NCI-H522 lung
# SK-MEL-28 melanoma = system: SK-MEL-28 melanoma
# UACC-62 melanoma = system: UACC-62 melanoma
# UACC-257 melanoma = system: UACC-257 melanoma
# A498 renal = system: A498 renal
# HCC-2998 colon = system: HCC-2998 colon
# NCI-H460 lung = system: NCI-H460 lung
# M14 melanoma = system: M14 melanoma
# SR leukemia = system: SR leukemia
# MCF7 breast = system: MCF7 breast
# HT29 colon = system: HT29 colon
# OVCAR-3 ovarian = system: OVCAR-3 ovarian
# DU-145 prostate = system: DU-145 prostate
# HCT-116 colon = system: HCT-116 colon
# NCI/ADR-RES ovarian = system: NCI/ADR-RES ovarian
# EKVX NSCLC = system: EKVX NSCLC
# NCI-H226 lung = system: NCI-H226 lung
# MOLT-4 leukemia = system: MOLT-4 leukemia
# CAKI-1 renal = system: CAKI-1 renal
# MDA-MB-435 = system: MDA-MB-435
# SK-OV-3 ovarian = system: SK-OV-3 ovarian
# COLO 205 colon = system: COLO 205 colon
# U251 CNS = system: U251 CNS
# LOX IMVI melanoma = system: LOX IMVI melanoma
# OVCAR-8 ovarian = system: OVCAR-8 ovarian
# OVCAR-5 ovarian = system: OVCAR-5 ovarian
# K-562 leukemia = system: K-562 leukemia
# SK-MEL-5 melanoma = system: SK-MEL-5 melanoma
# RXF 393 renal = system: RXF 393 renal
# MALME-3M melanoma = system: MALME-3M melanoma
# SN12C renal = system: SN12C renal
smiles,measurement,setting,value
O=C1N=C(c2c(-c3[nH]c(=O)c4ccc(Br)cc4c3O)c(O)c3ccccc3c2O)C(=O)c2cc(Br)ccc21,TGI,SK-MEL-2 melanoma,> 4940 nM
same,GI50,IGROV1 ovarian,493 nM
same,TGI,IGROV1 ovarian,1410 nM
same,GI50,KM12 colon,566 nM
same,TGI,KM12 colon,1970 nM
same,GI50,HOP-62 NSCLC,292 nM
same,TGI,HOP-62 NSCLC,660 nM
same,GI50,A549 NSCLC,577 nM
same,TGI,A549 NSCLC,> 16700 nM
same,GI50,TK-10 renal,484 nM
same,TGI,TK-10 renal,1180 nM
same,GI50,NCI-H23 lung,300 nM
same,TGI,NCI-H23 lung,785 nM
same,GI50,BT-549 breast,422 nM
same,TGI,BT-549 breast,1350 nM
same,GI50,UO-31 renal,287 nM
same,TGI,UO-31 renal,638 nM
same,GI50,MDA-MB-231 breast,585 nM
same,TGI,MDA-MB-231 breast,> 16700 nM
same,GI50,SNB-75 CNS,261 nM
same,TGI,SNB-75 CNS,537 nM
same,GI50,HCT-15 colon,306 nM
same,TGI,HCT-15 colon,672 nM
same,GI50,ACHN renal,333 nM
same,TGI,ACHN renal,908 nM
same,GI50,RPMI-8226 leukemia,> 3430 nM
same,TGI,RPMI-8226 leukemia,> 16700 nM
same,GI50,786-0 renal,360 nM
same,TGI,786-0 renal,805 nM
same,GI50,CCRF-CEM leukemia,930 nM
same,TGI,CCRF-CEM leukemia,> 16700 nM
same,GI50,HL-60(TB) leukemia,> 16700 nM
same,TGI,HL-60(TB) leukemia,> 16700 nM
same,GI50,HOP-92 NSCLC,> 16700 nM
same,TGI,HOP-92 NSCLC,> 16700 nM
same,GI50,SNB-19 CNS,611 nM
same,TGI,SNB-19 CNS,> 16700 nM
same,GI50,NCI-H522 lung,359 nM
same,TGI,NCI-H522 lung,1110 nM
same,GI50,SK-MEL-28 melanoma,375 nM
same,TGI,SK-MEL-28 melanoma,926 nM
same,TGI,UACC-62 melanoma,> 16700 nM
same,GI50,UACC-257 melanoma,480 nM
same,TGI,UACC-257 melanoma,1110 nM
same,GI50,A498 renal,4.4 nM
same,TGI,A498 renal,> 16700 nM
same,GI50,HCC-2998 colon,347 nM
same,TGI,HCC-2998 colon,832 nM
same,GI50,NCI-H460 lung,417 nM
same,TGI,NCI-H460 lung,1020 nM
same,GI50,M14 melanoma,523 nM
same,TGI,M14 melanoma,1600 nM
same,GI50,SR leukemia,944 nM
same,TGI,SR leukemia,> 16700 nM
same,GI50,MCF7 breast,335 nM
same,TGI,MCF7 breast,1210 nM
same,GI50,HT29 colon,> 8040 nM
same,TGI,HT29 colon,> 16700 nM
same,GI50,OVCAR-3 ovarian,388 nM
same,TGI,OVCAR-3 ovarian,932 nM
same,GI50,DU-145 prostate,427 nM
same,TGI,DU-145 prostate,1110 nM
same,GI50,HCT-116 colon,378 nM
same,TGI,HCT-116 colon,1000 nM
same,GI50,NCI/ADR-RES ovarian,363 nM
same,TGI,NCI/ADR-RES ovarian,1080 nM
same,GI50,EKVX NSCLC,353 nM
same,TGI,EKVX NSCLC,1530 nM
same,GI50,NCI-H226 lung,335 nM
same,TGI,NCI-H226 lung,937 nM
same,GI50,MOLT-4 leukemia,> 3710 nM
same,TGI,MOLT-4 leukemia,> 16700 nM
same,GI50,CAKI-1 renal,379 nM
same,TGI,CAKI-1 renal,1030 nM
same,GI50,MDA-MB-435,1030 nM
same,TGI,MDA-MB-435,4740 nM
same,GI50,SK-OV-3 ovarian,388 nM
same,TGI,SK-OV-3 ovarian,1220 nM
same,GI50,COLO 205 colon,> 16700 nM
same,TGI,COLO 205 colon,> 16700 nM
same,GI50,U251 CNS,370 nM
same,TGI,U251 CNS,798 nM
same,GI50,LOX IMVI melanoma,281 nM
same,TGI,LOX IMVI melanoma,554 nM
same,GI50,OVCAR-8 ovarian,526 nM
same,TGI,OVCAR-8 ovarian,> 16700 nM
same,GI50,OVCAR-5 ovarian,> 8370 nM
same,TGI,OVCAR-5 ovarian,> 16700 nM
same,GI50,K-562 leukemia,593 nM
same,TGI,K-562 leukemia,> 16700 nM
same,GI50,SK-MEL-5 melanoma,479 nM
same,TGI,SK-MEL-5 melanoma,1470 nM
same,GI50,RXF 393 renal,296 nM
same,TGI,RXF 393 renal,646 nM
same,GI50,MALME-3M melanoma,367 nM
same,TGI,MALME-3M melanoma,770 nM
same,GI50,SN12C renal,359 nM
same,TGI,SN12C renal,790 nM
